Test results taken from US10800730B2, “Complex and structurally diverse compounds” (The Board of Trustees of the University of Illinois, priority 2012, dated 2020).

Experiments:
[1] = tested on: U-937 (lymphoma); test: 72-hour IC50 toward U-937 cancer cell line; format: cell-based; conditions: Homo sapiens
Description: (§1) Compounds prepared according to the methods described herein have been screened for activity against various cancer cell lines.

[2] = tested on: HeLa (cervical); test: 72-hour IC50 toward HeLa cancer cell line; format: cell-based; conditions: Homo sapiens
Description: as §1

[3] = tested on: H1299 (NSC lung); test: 72-hour IC50 toward H1299 cancer cell line; format: cell-based; conditions: Homo sapiens, NCI-H1299
Description: as §1

[4] = tested on: MCF7 (breast); test: 72-hour IC50 toward MCF7 cancer cell line; format: cell-based; conditions: Homo sapiens
Description: as §1

[5] = tested on: B16F10 (melanoma); test: 72-hour IC50 toward B16F10 cancer cell line; format: cell-based; conditions: Mus musculus, B16-F10
Description: as §1

[6] = tested on: EL-4 (lymphoma); test: 72-hour IC50 toward EL-4 cancer cell line; format: cell-based
Description: as §1

[7] = tested on: A549 (lung); test: 72-hour IC50 toward A549 cancer cell line; format: cell-based; conditions: Homo sapiens
Description: as §1

[8] = tested on: caspase; test: Western blot for caspase activation; format: cell-based; conditions: Western blot (FIG. 11)
[9] = tested on: EL-4 syngeneic mouse model; test: Tumor volume in EL-4 syngeneic mouse model; format: in vivo; conditions: 2 treatments at 30 mg/kg over one week and a final treatment at 20 mg/kg after the first week, p=0.023, n=8
[10] = tested on: U-937 cells; test: Non-apoptotic cell death of U-937 cells; format: cell-based; conditions: U-937 cells (FIG. 12)
Description: FIG. 12. Non-apoptotic cell death of U-937 cells by compound GA-4.

Row | IC50 [1] | IC50 [2] | IC50 [3] | IC50 [4] | IC50 [5] | IC50 [6] | IC50 [7] | SMILES | caspase activation [8] | reduction in tumor volume [9] | non-apoptotic cell death [10]
1 | 0.56 ± 0.18 µM | 1.14 ± 0.03 µM | 2.4 ± 0.8 µM | 4.8 ± 1.3 µM | 1 ± 0.4 µM | 0.85 ± 0.09 µM | 5.9 ± 0.05 µM | C=C1C[C@]23C[C@@]1(O)CC[C@H]2[C@@]12C=CC(=O)C(C)(C(=O)O1)[C@H]2[C@@H]3C(=O)OC [GA-4] | lack of caspase activation | 43% | remarkable amounts of non-apoptotic cell death
2 | 1.78 ± 0.09 µM | 4.9 ± 0.09 µM |  |  |  |  | 4.5 ± 0.09 µM | COC(=O)[C@H]1[C@@H]2C3(C)C(=O)C=C[C@@]2(OC3=O)[C@@H]2CC[C@@]3(CBr)C[C@]21CC3=O [GA-81] |  |  | 
